Our source for the IC50 values is patent US9809574B2, “Isoindoline or isoquinoline compounds, a process for their preparation and pharmaceutical compositions containing them” (LES LABORATOIRES SERVIER, priority 2013, dated 2017).

The target of one assay is Bcl-2 protein (histag-Bcl-2, UniProtKB P10415) (Homo sapiens (Human), UniProt P10415). Nature of the assay: Inhibition of Bcl-2 by the fluorescence polarisation technique. In kind it is binding. To be noted: fluorescence polarisation test; incubation for 2 hours; read-out: IC50 (nM) Bcl-2 FP. An excerpt: For partial inhibitors, the percentage fluorescence polarisation inhibition for a given concentration of the test compound is indicated.
Chain of Bcl-2 protein (P10415 whole entry): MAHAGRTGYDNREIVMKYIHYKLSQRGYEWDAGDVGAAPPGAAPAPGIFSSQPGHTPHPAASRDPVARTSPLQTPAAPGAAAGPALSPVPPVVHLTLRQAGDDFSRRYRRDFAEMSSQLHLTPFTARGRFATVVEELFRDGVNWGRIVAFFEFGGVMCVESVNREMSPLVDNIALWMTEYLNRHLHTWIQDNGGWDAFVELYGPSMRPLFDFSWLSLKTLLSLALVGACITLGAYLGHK

Assay [1] has as its system RS4; 11 leukaemia cell line. Briefly: In vitro cytotoxicity, Microculture Tetrazolium Assay (MTT). Format: cell-based. The note with it: 11 cells exposed for 48 hours. Here is the method: The cytotoxicity studies were carried out on the RS4; 11 leukaemia cell line and on H146 small Cell Lung Carcinoma cell line. The cells are distributed onto microplates and exposed to the test compounds for 48 hours. The cell viability is then quantified by a colorimetric assay, the Microculture Tetrazolium Assay (Cancer Res., 1987, 47, 939-942).

Take `Cc1c(C(=O)N(C)c2ccc(O)cc2)cc(-c2cc3c(cc2C(=O)N2Cc4ccccc4C[C@H]2C)CN(C(=O)Cc2ccccc2)CC3)n1C` [Example 75, N-(4-Hydroxyphenyl)-N,1,2-trimethyl-5-{7-[(3R)-3-methyl-1,2,3,4-tetrahydroisoquinoline-2-carbonyl]-2-(2-phenylacetyl)-1,2,3,4-tetrahydroisoquinolin-6-yl}-1H-pyrrole-3-carboxamide]: the 50% inhibitory concentration (IC50) amounted to 4 nM on Bcl-2 protein and 6.2 nM in assay [1] (Homo sapiens).

For the compound `COc1cc(C#N)ccc1OC(=O)N1CCc2cc(-c3cc(C(=O)N(C)c4ccc(O)cc4)c4n3CCCC4)c(C(=O)N3Cc4ccccc4C[C@H]3CN3CCOCC3)cc2C1` [Example 148, 4-Cyano-2-methoxyphenyl 6-{1-[(4-hydroxyphenyl)(methyl)carbamoyl]-5,6,7,8-tetrahydroindolizin-3-yl}-7-[(3S)-3-(morpholin-4-ylmethyl)-1,2,3,4-tetrahydroisoquinoline-2-carbonyl]-1,2,3,4-tetrahydroisoquinoline-2-carboxylate], the IC50 at Bcl-2 protein came to 3 nM; in assay [1] (Homo sapiens) it was 10 nM.

For `Cc1c(C(=O)N(C)c2ccccc2)cc(-c2cc3c(cc2C(=O)N2Cc4ccccc4C[C@H]2C)CN(C(=O)Oc2ccc(CCC(=O)N(C)C)cc2)CC3)n1C` [Example 788, 4-[2-(Dimethylcarbamoyl)ethyl]phenyl 6-{1,5-dimethyl-4-[methyl(phenyl)carbamoyl]-1H-pyrrol-2-yl}-7-[(3R)-3-methyl-1,2,3,4-tetrahydroisoquinoline-2-carbonyl]-1,2,3,4-tetrahydroisoquinoline-2-carboxylate], the IC50 was found to be 4.4 nM on Bcl-2 protein and 14 nM in assay [1] (Homo sapiens).

As for `Cc1c(C(=O)N(C)c2ccc(O)cc2)cc(-c2cc3c(cc2C(=O)N2Cc4ccccc4C[C@H]2CN2CCOCC2)CN(C(=O)Oc2cccc(C#N)c2)CC3)n1C` [Example 560, 3-Cyanophenyl 6-{4-[(4-hydroxyphenyl)(methyl)carbamoyl]-1,5-dimethyl-1H-pyrrol-2-yl}-7-[(3S)-3-(morpholin-4-ylmethyl)-1,2,3,4-tetrahydroisoquinoline-2-carbonyl]-1,2,3,4-tetrahydroisoquinoline-2-carboxylate], the half-inhibitory concentration (IC50) at Bcl-2 protein came to 8.8 nM; in assay [1] (Homo sapiens), 70 nM.

In the case of `C[C@@H]1Cc2ccccc2CN1C(=O)c1cc2c(cc1-c1cc(C(=O)N(C)c3ccc(O)cc3)c3n1CCCC3)CCN(C(=O)Cc1ccc(NCCN3CCOCC3)cc1)C2` [Example 96, N-(4-Hydroxyphenyl)-N-methyl-3-{7-[(3R)-3-methyl-1,2,3,4-tetrahydroisoquinoline-2-carbonyl]-2-[2-(4-{[2-(morpholin-4-yl)ethyl]amino}phenyl)acetyl]-1,2,3,4-tetrahydroisoquinolin-6-yl}-5,6,7,8-tetrahydroindolizine-1-carboxamide], the figures for the IC50 (on Bcl-2 protein; in assay [1] (Homo sapiens)) were 3.9 nM and 9.1 nM, respectively.

Turning to `C[C@@H]1Cc2ccccc2CN1C(=O)c1cc2c(cc1-c1cc(C(=O)N(C)c3ccc(O)cc3)c3n1CCCC3)CCN(C(=O)Oc1ccc(N)cc1)C2` [Example 58, 4-Aminophenyl 6-{1-[(4-hydroxyphenyl)(methyl)carbamoyl]-5,6,7,8-tetrahydroindolizin-3-yl}-7-[(3R)-3-methyl-1,2,3,4-tetrahydroisoquinoline-2-carbonyl]-1,2,3,4-tetrahydroisoquinoline-2-carboxylate], the figures for the IC50 (on Bcl-2 protein; in assay [1] (Homo sapiens)) were 4.2 nM and 3.3 nM, respectively.

Take `Cc1c(C(=O)N(C)c2ccc(O)cc2)cc(-c2cc3c(cc2C(=O)N2Cc4ccccc4C[C@H]2C)CN(C(=O)Oc2cccc(OCCN(C)C)c2)CC3)n1C` [Example 434, 3-[2-(Dimethylamino)ethoxy]phenyl 6-{4-[(4-hydroxyphenyl)(methyl)carbamoyl]-1,5-dimethyl-1H-pyrrol-2-yl}-7-[(3R)-3-methyl-1,2,3,4-tetrahydroisoquinoline-2-carbonyl]-1,2,3,4-tetrahydrisoquinoline-2-carboxylate]: the figures for the half-maximal inhibitory concentration (IC50) (at Bcl-2 protein; in assay [1]) were 2.9 nM and 1.6 nM, respectively.

Take `C[C@@H]1Cc2ccccc2CN1C(=O)c1cc2c(cc1-c1cc(C(=O)N(C)c3ccc(O)cc3)c3n1CCCC3)CN(C(=O)Cc1csc(-c3cnccn3)n1)C2` [Example 31, N-(4-Hydroxyphenyl)-N-methyl-3-{6-[(3R)-3-methyl-1,2,3,4-tetrahydroisoquinoline-2-carbonyl]-2-{2-[2-(pyrazin-2-yl)-1,3-thiazol-4-yl]acetyl}-2,3-dihydro-1H-isoindol-5-yl}-5,6,7,8-tetrahydroindolizine-1-carboxamide]: the IC50 on Bcl-2 protein amounted to 7.4 nM; in assay [1] (Homo sapiens), 113 nM.

For the compound `Cc1c(C(=O)N(C)c2ccc(O)cc2)cc(-c2cc3c(cc2C(=O)N2Cc4ccccc4C[C@H]2C)CN(C(=O)Cc2ccccc2)C3)n1C` [Example 80, N-(4-Hydroxyphenyl)-N,1,2-trimethyl-5-{6-[(3R)-3-methyl-1,2,3,4-tetrahydroisoquinoline-2-carbonyl]-2-(2-phenylacetyl)-2,3-dihydro-1H-isoindol-5-yl}-1H-pyrrole-3-carboxamide], the IC50 was 5.5 nM at Bcl-2 protein and 71 nM in assay [1] (Homo sapiens).

For the compound `Cc1c(C(=O)N(C)c2ccc(O)cc2)cc(-c2cc3c(cc2C(=O)N2Cc4ccccc4C[C@H]2CN2CCOCC2)CN(C(=O)COc2ccccc2)C3)n1C` [Example 159, N-(4-Hydroxyphenyl)-N,1,2-trimethyl-5-{6-[(3S)-3-(morpholin-4-ylmethyl)-1,2,3,4-tetrahydroisoquinoline-2-carbonyl]-2-(2-phenoxyacetyl)-2,3-dihydro-1H-isoindol-5-yl}-1H-pyrrole-3-carboxamide], the IC50 was 8.5 nM on Bcl-2 protein and 163 nM in assay [1] (Homo sapiens).

As to `Cc1ccc(OC(=O)N2Cc3cc(C(=O)N4Cc5ccccc5C[C@H]4C)c(-c4cc(C(=O)N(C)c5ccc(O)cc5)c(C)n4C)cc3C2)cc1` [Example 107, 4-Methylphenyl 5-{4-[(4-hydroxyphenyl)(methyl)carbamoyl]-1,5-dimethyl-1H-pyrrol-2-yl}-6-[(3R)-3-methyl-1,2,3,4-tetrahydroisoquinoline-2-carbonyl]-2,3-dihydro-1H-isoindole-2-carboxylate], the IC50 stood at 3.5 nM on Bcl-2 protein and 6.9 nM in assay [1] (Homo sapiens).

Regarding `Cc1c(C(=O)N(C)c2ccccc2)cc(-c2cc3c(cc2C(=O)N2Cc4ccccc4C[C@H]2C)CN(C(=O)Oc2ccccc2)CC3)n1C` [Example 114, Phenyl 6-{1,5-dimethyl-4-[methyl(phenyl)carbamoyl]-1H-pyrrol-2-yl}-7-[(3R)-3-methyl-1,2,3,4-tetrahydroisoquinoline-2-carbonyl]-1,2,3,4-tetrahydroisoquinoline-2-carboxylate], the half-maximal inhibitory concentration (IC50) on Bcl-2 protein worked out at 3.8 nM; in assay [1] (Homo sapiens) it was 28 nM.

With `Cc1c(C(=O)N(C)c2ccccc2)cc(-c2cc3c(cc2C(=O)N2Cc4ccccc4C[C@H]2C)CN(C(=O)Oc2cccc(OCCN(C)C)c2)CC3)n1C` [Example 448, 3-[2-(Dimethylamino)ethoxy]phenyl 6-{1,5-dimethyl-4-[methyl(phenyl)carbamoyl]-1H-pyrrol-2-yl}-7-[(3R)-3-methyl-1,2,3,4-tetrahydroisoquinoline-2-carbonyl]-1,2,3,4-tetrahydroisoquinoline-2-carboxylate], the 50% inhibitory concentration (IC50) on Bcl-2 protein turned out to be 4 nM; in assay [1] (Homo sapiens), 8.2 nM.

Turning to `C[C@@H]1Cc2ccccc2CN1C(=O)c1cc2c(cc1-c1cc(C(=O)N(C)c3ccc(O)cc3)c3n1CCCC3)CCN(C(=O)Cc1ccccc1)C2` [Example 36, N-(4-Hydroxyphenyl)-N-methyl-3-{7-[(3R)-3-methyl-1,2,3,4-tetrahydroisoquinoline-2-carbonyl]-2-(2-phenylacetyl)-1,2,3,4-tetrahydroisoquinolin-6-yl}-5,6,7,8-tetrahydroindolizine-1-carboxamide], the IC50 was 4.8 nM at Bcl-2 protein and 6.2 nM in assay [1] (Homo sapiens).

`Cc1c(C(=O)N(C)c2ccc(O)cc2)cc(-c2cc3c(cc2C(=O)N2Cc4ccccc4C[C@H]2C)CN(C(=O)Oc2ccc(CCC(=O)N(C)C)cc2)CC3)n1C` [Example 804, 4-[2-(Dimethylcarbamoyl)ethyl]phenyl 6-{4-[(4-hydroxyphenyl)(methyl)carbamoyl]-1,5-dimethyl-1H-pyrrol-2-yl}-7-[(3R)-3-methyl-1,2,3,4-tetrahydroisoquinoline-2-carbonyl]-1,2,3,4-tetrahydroisoquinoline-2-carboxylate]: the values for the half-maximal inhibitory concentration (IC50) (on Bcl-2 protein; in assay [1] (Homo sapiens)) were 3.6 nM and 2.2 nM, respectively.

`Cc1c(C(=O)N(C)c2ccc(O)cc2)cc(-c2cc3c(cc2C(=O)N2Cc4ccccc4C[C@H]2C)CN(C(=O)Oc2cccc(C(=O)O)c2)CC3)n1C` [Example 715, 3-(6-{4-[(4-Hydroxyphenyl)(methyl)carbamoyl]-1,5-dimethyl-1H-pyrrol-2-yl}-7-[(3R)-3-methyl-1,2,3,4-tetrahydroisoquinoline-2-carbonyl]-1,2,3,4-tetrahydroisoquinoline-2-carbonyloxy)benzoic acid]: the IC50 on Bcl-2 protein was 2.2 nM; in assay [1] (Homo sapiens), more than 150 nM.

Turning to `Cc1ccccc1OC(=O)N1CCc2cc(-c3cc(C(=O)N(C)c4ccc(O)cc4)c4n3CCCC4)c(C(=O)N3Cc4ccccc4C[C@H]3CN3CCOCC3)cc2C1` [Example 100, 2-Methylphenyl 6-{1-[(4-hydroxyphenyl)(methyl)carbamoyl]-5,6,7,8-tetrahydroindolizin-3-yl}-7-[(3S)-3-(morpholin-4-ylmethyl)-1,2,3,4-tetrahydroisoquinoline-2-carbonyl]-1,2,3,4-tetrahydroisoquinoline-2-carboxylate], the IC50 was 3.9 nM at Bcl-2 protein and 6.5 nM in assay [1] (Homo sapiens).

For the compound `C[C@@H]1Cc2ccccc2CN1C(=O)c1cc2c(cc1-c1cc(C(=O)N(C)c3ccc(O)cc3)c3n1CCCC3)CCN(S(=O)(=O)c1ccccc1)C2` [Example 39, 3-[2-(Benzenesulfonyl)-7-[(3R)-3-methyl-1,2,3,4-tetrahydroisoquinoline-2-carbonyl]-1,2,3,4-tetrahydroisoquinolin-6-yl]-N-(4-hydroxyphenyl)-N-methyl-5,6,7,8-tetrahydroindolizine-1-carboxamide], the results for the IC50 (at Bcl-2 protein; in assay [1] (Homo sapiens)) were 14 nM and 106 nM, respectively.
